{
  "source": "patent US10874743B2",
  "about": "“IRAK degraders and uses thereof” (Kymera Therapeutics, Inc., priority 2017, dated 2020)",
  "assay": "Pharmacokinetics in CD-1 mice (plasma concentrations, PK parameters)",
  "assay_type": "in vivo",
  "procedure": "Pharmacokinetics for I-127, I-172 and I-210 were determined in Sprague Dawley rats or CD-1 mice by dosing intravenous (IV), subcutaneous (SC) or per oral (PO) using facility SOPs and sampling plasma at required time points. Species, formulation, route of administration and time points samples are listed below for each compound.\nCompounds were extracted from plasma, injected on reverse phase HPLC, eluted with a gradient from 5% to 95% acetonitrile in water and quantified by mass spectrometry with internal standard. Data are expressed in ng compound per mL of plasma.",
  "key": {"[1]": {"details": "mouse (CD1) iv 2 mg/kg, individual Mouse 1-3, 2 mg/kg"}, "[2]": {"details": "mouse (CD1) po 30 mg/kg, individual Mouse 4-6, 30 mg/kg"}, "[3]": {"details": "mouse (CD1) sc 30 mg/kg, individual Mouse 7-9, 30 mg/kg"}},
  "note": "Several values for one entry are separate records, joined by “and”; a condition that tells them apart may be missing. Identical values can stand only once. Like-named read-outs stand apart in the source and are kept apart here.",
  "data": [
    {"smiles": "O=C1CCC(N2C(=O)c3cccc(NCCOCCOCCNCc4ccc(-n5cc(NC(=O)c6coc(-c7ccnc(NCC8CC8)c7)n6)c(C(F)F)n5)cc4)c3C2=O)C(=O)N1", "note": "(stereo not shown) [I-210, 2-[2-(Cyclopropylmethylamino)-4-pyridyl]-N-[3-(difluoromethyl)-1-[4-[[2-[2-[2-[[2-(2,6-dioxo-3-piperidyl)-1,3-dioxoisoindolin-4-yl]amino]ethoxy]ethoxy]ethylamino]methyl]phenyl]pyrazol-4-yl]oxazole-4-carboxamide]", "values": [
      {"measurement": "Tmax", "setting": "CD-1, mouse, plasma, sc, 30 mg/kg, mouse (CD1) sc 30 mg/kg, Mean, read-out: Tmax", "value": 2.33, "unit": "h"},
      {"measurement": "half-life", "setting": "CD-1, mouse, plasma, sc, 30 mg/kg, mouse (CD1) sc 30 mg/kg, individual Mouse 7-9", "value": 4.34, "unit": "h"},
      {"measurement": "AUC(0-inf)", "setting": "CD-1, mouse, plasma, sc, 30 mg/kg, mouse (CD1) sc 30 mg/kg, individual Mouse 7-9, read-out: AUCInf", "value": 1000, "unit": "ng·h/mL"},
      {"measurement": "AUC(0-t)", "setting": "CD-1, mouse, plasma, sc, 30 mg/kg, mouse (CD1) sc 30 mg/kg, individual Mouse 7-9, read-out: AUClast", "value": 980, "unit": "ng·h/mL"},
      {"measurement": "Cmax", "setting": "CD-1, mouse, plasma, sc, 30 mg/kg, mouse (CD1) sc 30 mg/kg, individual Mouse 7-9, read-out: Cmax", "value": 107, "unit": "ng/mL"},
      {"measurement": "MRT inf", "setting": "CD-1, mouse, plasma, sc, 30 mg/kg, mouse (CD1) sc 30 mg/kg, individual Mouse 7-9, read-out: MRTInf_obs", "value": 6.06, "unit": "h"},
      {"measurement": "Concentration", "setting": "mouse (CD1) iv 2 mg/kg, 5 min, individual Mouse 1-3, 2 mg/kg", "value": "495 ng/mL and 692 ng/mL"},
      {"measurement": "Concentration", "setting": "mouse (CD1) iv 2 mg/kg, 0.25 h, individual Mouse 1-3, 2 mg/kg", "value": "382 ng/mL and 424 ng/mL"},
      {"measurement": "Concentration", "setting": "mouse (CD1) iv 2 mg/kg, 0.5 h, individual Mouse 1-3, 2 mg/kg", "value": "238 ng/mL and 306 ng/mL"},
      {"measurement": "Concentration", "setting": "mouse (CD1) iv 2 mg/kg, 1 h, individual Mouse 1-3, 2 mg/kg", "value": "164 ng/mL and 195 ng/mL"},
      {"measurement": "Concentration", "setting": "mouse (CD1) iv 2 mg/kg, 2 h, individual Mouse 1-3, 2 mg/kg", "value": "92.5 ng/mL and 90.7 ng/mL"},
      {"measurement": "Concentration", "setting": "mouse (CD1) iv 2 mg/kg, 4 h, individual Mouse 1-3, 2 mg/kg", "value": "20.2 ng/mL and 25.6 ng/mL"},
      {"measurement": "Concentration", "setting": "mouse (CD1) iv 2 mg/kg, 8 h, individual Mouse 1-3, 2 mg/kg", "value": "4.92 ng/mL and 4.93 ng/mL"},
      {"measurement": "Concentration", "setting": "mouse (CD1) iv 2 mg/kg, 24 h, individual Mouse 1-3", "value": "BLOQ"},
      {"measurement": "AUC_%Extrap_obs", "setting": "mouse (CD1) iv 2 mg/kg, Mean", "value": 1.66, "unit": "%"},
      {"measurement": "AUClast/D", "setting": "mouse (CD1) iv 2 mg/kg, Mean", "value": 331, "unit": "h·ng/mL per mg/kg"},
      {"measurement": "Cl_obs", "setting": "mouse (CD1) iv 2 mg/kg, Mean", "value": 49.9, "unit": "mL/min/kg"},
      {"measurement": "Vss_obs", "setting": "mouse (CD1) iv 2 mg/kg, Mean", "value": 4.48, "unit": "L/kg"},
      {"measurement": "AUCInf", "setting": "[1]", "value": "597 ng·h/mL and 706 ng·h/mL"},
      {"measurement": "AUC_%Extrap_obs", "setting": "[1]", "value": "1.76% (2×) and 1.47%"},
      {"measurement": "AUClast", "setting": "[1]", "value": "586 ng·h/mL and 695 ng·h/mL"},
      {"measurement": "AUClast/D", "setting": "[1]", "value": "351 h·ng/mL per mg/kg and 293 h·ng/mL per mg/kg and 348 h·ng/mL per mg/kg"},
      {"measurement": "C0", "setting": "[1]", "value": "563 ng/mL and 884 ng/mL"},
      {"measurement": "Cl_obs", "setting": "[1]", "value": "46.7 mL/min/kg and 55.8 mL/min/kg and 47.2 mL/min/kg"},
      {"measurement": "MRTInf_obs", "setting": "[1]", "value": 1.41, "unit": "h"},
      {"measurement": "T1/2", "setting": "[1]", "value": "1.48 h and 1.46 h"},
      {"measurement": "Vss_obs", "setting": "[1]", "value": "4.42 L/kg and 5.04 L/kg and 4.00 L/kg"},
      {"measurement": "Concentration", "setting": "mouse (CD1) po 30 mg/kg, 0.25 h, individual Mouse 4-6, 30 mg/kg", "value": "55.9 ng/mL and 23.7 ng/mL and 12.8 ng/mL"},
      {"measurement": "Concentration", "setting": "mouse (CD1) po 30 mg/kg, 0.5 h, individual Mouse 4-6, 30 mg/kg", "value": "120 ng/mL and 23.0 ng/mL and 22.2 ng/mL"},
      {"measurement": "Concentration", "setting": "mouse (CD1) po 30 mg/kg, 1 h, individual Mouse 4-6, 30 mg/kg", "value": "153 ng/mL and 16.9 ng/mL and 45.1 ng/mL"},
      {"measurement": "Concentration", "setting": "mouse (CD1) po 30 mg/kg, 2 h, individual Mouse 4-6, 30 mg/kg", "value": "91.1 ng/mL and 112 ng/mL"},
      {"measurement": "Concentration", "setting": "mouse (CD1) po 30 mg/kg, 4 h, individual Mouse 4-6, 30 mg/kg", "value": "143 ng/mL and 123 ng/mL"},
      {"measurement": "Concentration", "setting": "mouse (CD1) po 30 mg/kg, 8 h, individual Mouse 4-6, 30 mg/kg", "value": "34.8 ng/mL and 17.1 ng/mL and 16.4 ng/mL"},
      {"measurement": "Concentration", "setting": "mouse (CD1) po 30 mg/kg, 24 h, individual Mouse 4-6", "value": "BLOQ"},
      {"measurement": "AUC_%Extrap_obs", "setting": "mouse (CD1) po 30 mg/kg, Mean", "value": 9.8, "unit": "%"},
      {"measurement": "AUClast/D", "setting": "mouse (CD1) po 30 mg/kg, Mean", "value": 22.5, "unit": "h·ng/mL per mg/kg"},
      {"measurement": "F", "setting": "mouse (CD1) po 30 mg/kg, Mean", "value": 7.47, "unit": "%"},
      {"measurement": "AUCInf", "setting": "[2]", "value": "681 ng·h/mL and 662 ng·h/mL"},
      {"measurement": "AUC_%Extrap_obs", "setting": "[2]", "value": "14.2% and 7.97% and 7.15%"},
      {"measurement": "AUClast", "setting": "[2]", "value": "627 ng·h/mL and 615 ng·h/mL"},
      {"measurement": "AUClast/D", "setting": "[2]", "value": "26.2 h·ng/mL per mg/kg and 20.9 h·ng/mL per mg/kg and 20.5 h·ng/mL per mg/kg"},
      {"measurement": "Cmax", "setting": "[2]", "value": "143 ng/mL and 123 ng/mL"},
      {"measurement": "F", "setting": "[2]", "value": "9.09% and 6.76% and 6.57%"},
      {"measurement": "MRTInf_obs", "setting": "[2]", "value": "4.24 h and 3.97 h"},
      {"measurement": "T1/2", "setting": "[2]", "value": "2.20 h and 2.00 h"},
      {"measurement": "Concentration", "setting": "mouse (CD1) sc 30 mg/kg, 0.25 h, individual Mouse 7-9, 30 mg/kg", "value": "93.0 ng/mL and 70.1 ng/mL"},
      {"measurement": "Concentration", "setting": "mouse (CD1) sc 30 mg/kg, 0.5 h, individual Mouse 7-9, 30 mg/kg", "value": "101 ng/mL and 66.6 ng/mL"},
      {"measurement": "Concentration", "setting": "mouse (CD1) sc 30 mg/kg, 1 h, individual Mouse 7-9, 30 mg/kg", "value": "107 ng/mL and 76.5 ng/mL"},
      {"measurement": "Concentration", "setting": "mouse (CD1) sc 30 mg/kg, 2 h, individual Mouse 7-9, 30 mg/kg", "value": "115 ng/mL and 81.1 ng/mL"},
      {"measurement": "Concentration", "setting": "mouse (CD1) sc 30 mg/kg, 4 h, individual Mouse 7-9, 30 mg/kg", "value": "91.8 ng/mL and 105 ng/mL"},
      {"measurement": "Concentration", "setting": "mouse (CD1) sc 30 mg/kg, 8 h, individual Mouse 7-9, 30 mg/kg", "value": "49.0 ng/mL and 42.0 ng/mL"},
      {"measurement": "Concentration", "setting": "mouse (CD1) sc 30 mg/kg, 24 h, individual Mouse 7-9, 30 mg/kg", "value": "2.88 ng/mL and 2.05 ng/mL"},
      {"measurement": "AUC_%Extrap_obs", "setting": "mouse (CD1) sc 30 mg/kg, Mean", "value": 1.60, "unit": "%"},
      {"measurement": "AUClast/D", "setting": "mouse (CD1) sc 30 mg/kg, Mean", "value": 33.9, "unit": "h·ng/mL per mg/kg"},
      {"measurement": "F", "setting": "mouse (CD1) sc 30 mg/kg, Mean", "value": 10.3, "unit": "%"},
      {"measurement": "AUCInf", "setting": "[3]", "value": "1119 ng·h/mL and 983 ng·h/mL"},
      {"measurement": "AUC_%Extrap_obs", "setting": "[3]", "value": "2.26% and 1.48% and 1.07%"},
      {"measurement": "AUClast", "setting": "[3]", "value": "1102 ng·h/mL and 973 ng·h/mL"},
      {"measurement": "AUClast/D", "setting": "[3]", "value": "32.7 h·ng/mL per mg/kg and 36.7 h·ng/mL per mg/kg and 32.4 h·ng/mL per mg/kg"},
      {"measurement": "Cmax", "setting": "[3]", "value": "115 ng/mL and 105 ng/mL"},
      {"measurement": "F", "setting": "[3]", "value": "9.94% and 11.1% and 9.75%"},
      {"measurement": "MRTInf_obs", "setting": "[3]", "value": "5.82 h and 5.73 h"},
      {"measurement": "T1/2", "setting": "[3]", "value": "3.98 h and 3.56 h"},
      {"measurement": "Tmax", "setting": "[3]", "value": 1, "unit": "h"}
    ]}
  ]
}
